Drawing on PubChem BioAssay AID179 (DTP/NCI, 2004), this text covers EC50, IC50 and outcome for 70 molecules.

“And” between values parts separate entries of the source, which are not always exact repeats. Equal values may be shown once. The source made the active and inactive calls.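 The calls were made as follows: active = compounds giving half or more protection of infected cells from virus-caused growth loss, again on retest; inactive = the rest.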 *1 amine or outer side, *2 acyl side, *3 side chain or, on linkers, in order; H or OH if unused. Where a SMILES comes first, the peptide text is derived from it. [ ]: non-standard residue; d: D form. The star is where a group is joined. X7 = NC(N)=NCC(O)CC(N[*:1])C(=O)[*:2]; Orn = NCCC[CH](N)C(=O)O; Cbz = O=C(OCc1ccccc1)*

The subject of this assay is CEM cells HIV-1 protection, formazan growth assay. The assay is described as follows: NCI AIDS Antiviral Assay. Particulars: for IC50: measured here: growth of uninfected CEM cells. In short, it runs like this: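 Soluble formazan readout of cell growth; CEM cells ± HIV-1; 5 drug concs. ≥50% protection → retest; ≥50% again = moderately active; reproducible 100% = confirmed active.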

The term EC50 denotes the midpoint of the concentration-response curve. The term IC50 denotes the concentration that gives 50% inhibition. A higher IC50 goes with weaker potency in that assay.

With `Cc1nc(N)c2c(n1)C(C)N(C(=O)c1ccccc1)C2` (centres undefined), the EC50 is above 135 µM and the IC50 is above 135 µM.
On to `CC(C)CCOC(=O)NC(Nc1ccc(F)cc1)(C(F)(F)F)C(F)(F)F`, for which the outcome was inactive.
As to `Cc1ccc(NC(=O)c2cc(S(=O)(=O)Nc3n[nH]c(=O)n3-c3ccccc3)c(S)cc2Cl)cc1`, the EC50 was 42.7 µM and the IC50 was above 200 µM.
`O=C(NNC1=NCCCN1)c1ccco1`: the EC50 was above 200 µM and the IC50 is above 200 µM.
Regarding `CC(C)CCC[C@@H](C)C1CCC2[C@@H]3CC(OS(=O)(=O)O)C4C[C@@H](OC5OC(CO)C(O)C(O)C5O)CC[C@]4(C)C3CC[C@@]21C` (some centres undefined), the EC50 was above 37.2 µM and the half-inhibitory concentration (IC50) came out at 6.03 µM.
The matching figures for `CCNC(=O)Sc1ccccc1C(=O)NCCC(N)=O`: 1.1 µM and 102 µM.
The matching figures for `O=c1[nH]c(=O)n(C2OC(CO)C(O)C2O)cc1OCCc1ccccc1` (centres undefined): above 200 µM and above 200 µM.
For the molecule `COc1cc2c(cc1OC)C1C=NC(C2)c2cc(OC)c(OC)cc21` (centres undefined), the outcome was inactive.
Still for that read-out and setting: the value for `O=C1CCCC(O)=C1SC1=C(O)CCCC1=O` was “inactive”.
In the case of `CC(C)(C)C(=O)CS(=O)(=O)O`, the EC50 is above 200 µM and the IC50 was above 200 µM.
With `CC(=O)NC(C)(C)C`, the result was inactive.
On the same count and under the same terms, the value for `C/C=C(/CCC1NCCC2c3ccccc3NC12)[Si](C)(C)C` (centres undefined) was “inactive”.
Turning to `CC(O)C(NC(=O)C(CCCN)NC(=O)C(CC(O)CN=C(N)N)NC(=O)C(N)CCCN=C(N)N)C(=O)NC(CCCN)C(=O)NC(CC(O)CN=C(N)N)C(=O)NC(Cc1ccc(O)cc1)C(=O)O` (centres undefined) (tested in a mixture with another compound) (H-R[X7][Orn]T[Orn][X7]Y-OH; configuration not given here), the EC50 is above 47.9 µM and the IC50 amounted to 39.8 µM.
Regarding `O=C1CCn2c([nH]c3cccc4cccc2c43)=N1`, the EC50 was above 151 µM and the IC50 is 148 µM.
In the case of `CC1(C)N=C(/C(Cl)=[N+](/[O-])C(=O)c2ccc(F)cc2)C(C)(C)N1O`, the EC50 is above 200 µM and the IC50 turned out to be 51.3 µM.
For `O=S(O)CCCSSSCCCS(=O)O`, the result was inactive.
For `O=P1(Nc2ccccc2)NCCCO1` (centres undefined), the EC50 is above 200 µM and the IC50 was above 200 µM.
Take `O=C(O)CCC(NC(=O)OCc1ccccc1)C(=O)NC(Cc1cnc[nH]1)C(=O)O` (stereo not drawn) (Cbz-Glu-His-OH; configuration not given here): the EC50 was above 200 µM and the IC50 is above 200 µM.
`Cc1cc(-c2ccc(C(=O)O)[nH]2)on1`: the EC50 was above 200 µM and the IC50 was found to be 69.2 µM.
As for `CCOC(=O)C1=C(Nc2ccc(Br)cc2)OCC1=O`, the result was inactive.
Consider `NNC(=O)c1c/c(=N\NC(=O)CC(=O)Nc2ccccc2Cl)c2ccccc2o1`, for which the EC50 was above 1.74 µM and the 50% inhibitory concentration (IC50) was above 1.74 µM.
With `CCOC(=O)C(O)(NC(=O)c1ccc(F)cc1)C(F)(F)F` (centres undefined), the EC50 is above 200 µM and the half-inhibitory concentration (IC50) is above 200 µM.
With `N#C/C(=C\c1ccc(Cl)cc1)c1ccc(C(=O)O)cc1`, the EC50 was above 200 µM and the IC50 came to 110 µM.
With `CS(=O)(=O)OCCCS(=O)(=O)O`, the EC50 was above 200 µM and the IC50 is above 200 µM.
For the molecule `[Pt].c1ccc([PH+](CC[PH+](CC[PH+](c2ccccc2)c2ccccc2)CC[PH+](c2ccccc2)c2ccccc2)c2ccccc2)cc1`, the EC50 is above 21.9 µM and the IC50 was 0.417 µM.
Taken in the same sequence, the figures for `O=C(CSc1nnc(Cc2ccccc2)o1)Nc1ccc(Cl)cc1Cl` were above 66.1 µM and above 66.1 µM.
On to `Cc1cccc(NS(=O)(=O)c2ccc3c(c2)OCCOCCOCCOCCO3)c1`, for which the EC50 is above 200 µM and the 50% inhibitory concentration (IC50) amounted to 158 µM.
With `COC1OC(COC(=O)NCCCCC(=O)C(F)(F)C(F)(F)C(F)(F)C(F)(F)C(F)(F)C(F)(F)C(F)(F)F)C(O)C(O)C1O` (centres undefined), the EC50 was above 200 µM; the half-maximal inhibitory concentration (IC50) is 2.95 µM and 6.03 µM.
On to `N/C(=N\N=C\c1ccc(C(F)(F)F)cc1)NO`, for which the EC50 is above 427 µM and the IC50 was above 427 µM.
Take `Cn1c(=O)n(C2(C)C[Se]C2)c2ccccc21`: the EC50 was above 468 µM and the half-maximal inhibitory concentration (IC50) was 166 µM.
Taken in the same sequence, the figures for `O=C(O)/C=C/c1ccc(OS(=O)(=O)O)cc1` were above 200 µM and above 200 µM.
As to `CCN(C(=O)N[C@H](C(=O)N[C@@H](C)C(=O)OC)C(C)C)c1ccccc1`, the EC50 was above 200 µM and the IC50 came out at 35.5 µM.
Taken in the same sequence, the figures for `CCOC(=O)n1c2ccccc2c2c(O)c(OC)c3c(c21)C(=O)NC3=O` were above 200 µM and 30.2 µM.
The matching figures for `C(=N/N=C(N/N=C/C1CNCCN1)N/N=C/C1CNCCN1)/C1CNCCN1` (centres undefined): above 631 µM and above 631 µM.
As for `OC(c1ccccn1)C1CNc2ccccc21` (centres undefined), the result was inactive.
For `O=C(CCCN1CCC2(CC1)CC(=O)N(N1CCCCCC1)C2=O)c1ccccc1`, the EC50 was above 200 µM and the IC50 is 182 µM.
With `O=C(/C=C/C(Cl)(Cl)Cl)Nc1ccc(Cl)cc1`, the EC50 was above 200 µM and the IC50 was found to be 10.2 µM.
In the case of `CC(=O)OCC(OC(C)=O)C(OC(C)=O)C(OC(C)=O)C(C=NN(C(C)=O)S(=O)(=O)c1ccc(/C=C2\NC(=O)NC2=O)cc1)OC(C)=O` (centres undefined), the EC50 was above 200 µM; the 50% inhibitory concentration (IC50) was 87.1 µM and 117 µM.
As for `COc1cc(-c2[o+]c3cc(O)cc(O)c3cc2O)cc(O)c1O`, the EC50 was above 200 µM and the IC50 came out at 15.1 µM.
The matching figures for `O=S(=O)(O)c1ccc(OCCCCCCCCOc2ccc(S(=O)(=O)O)cc2)cc1`: above 14.5 µM and above 14.5 µM.
In the case of `N.N.N.N.O=[N+]([O-])[O-].[Co+3].[N-]=[N+]=[N-].[N-]=[N+]=[N-]`, the outcome was inactive.
Take `BrCc1ccc(C[P+](c2ccccc2)(c2ccccc2)c2ccccc2)cc1`: the EC50 was above 200 µM and the IC50 stood at 3.89 µM.
Take `O=C(/C=C/c1ccccc1)CCc1c(O)c2ccccc2oc1=O`: the EC50 is above 112 µM and the IC50 came out at 97.7 µM.
Taken in the same sequence, the figures for `CCCCCCCCCCCCNC(=O)c1ccc([Se][Se]c2ccc(C(=O)NCCCCCCCCCCCC)cc2)cc1` were above 7.08 µM and above 7.08 µM.
For `CCc1c(Sc2ccccn2)n(COCc2ccccc2)c(=O)[nH]c1=O`, the concentration giving a half-maximal response (EC50) was 91.2 µM and the IC50 turned out to be 339 µM.
`COC(=O)/C=C1\C[C@H]2O[C@@](O)(C1)[C@H](C)C(=O)O[C@H]1C[C@@H](C=C(C)C)O[C@@H](CC3(O)O[C@H](CC[C@H]2O)[C@@H](C)[C@]2(O)CC[C@@H](C)C(=O)C32)[C@H]1C` (some centres undefined): the outcome was inactive.
`COC(=O)C1Cc2c([nH]c3ccccc23)-c2[nH]c3ccccc3c2CC(NC(C)=O)C(=O)N2CCCC2C(=O)N1` (centres undefined): the EC50 was above 200 µM and the half-inhibitory concentration (IC50) is 36.3 µM.
Regarding `CN1c2ccccc2N(C)P1(=S)c1ccccc1`, the EC50 is above 200 µM and the IC50 came to 26.9 µM.
The matching figures for `CCOC(=O)c1c(C)c(C(C)=O)c2ccccn12`: above 145 µM and 95.5 µM.
The matching figures for `CC[C@@H]1OC2(C)CC(S(=O)(=O)c3ccccc3)CC1O2` (some centres undefined): 26.3 µM and 170 µM.
Take `O=C1C(Cl)=C(O)C2(Cl)C(Cl)=C(Cl)C12Cl` (centres undefined): the outcome was inactive.
As to `CS(=O)(=O)NC(=O)C[P+](c1ccccc1)(c1ccccc1)c1ccccc1`, the EC50 is above 200 µM and the IC50 is above 200 µM.
Turning to `O=C(O)[C@@H]1CSC(C(O)C(O)C(O)C(O)CO)N1` (some centres undefined), the EC50 was above 200 µM and the IC50 was above 200 µM.
On to `Oc1ccc(-c2cc(-c3cc(-c4ccc(O)cc4)no3)on2)cc1`, for which the EC50 is above 200 µM and the IC50 stood at 6.31 µM.
Regarding `CC1(C)OCC(C2OC(=O)C(OCc3ccccc3)=C2OCc2ccccc2)O1` (centres undefined), the EC50 was above 200 µM and the concentration for half-maximal inhibition (IC50) was above 200 µM.
Consider `CC(CC(=O)Nc1ccc(NC(=O)CC(C)N=NC(N)=O)cc1)N=NC(N)=O` (centres undefined), for which the EC50 was above 129 µM and the IC50 was above 129 µM.
Consider `O=C1c2c(O)ccc([N+](=O)[O-])c2C(=O)c2c(O)ccc(Nc3cccc(CO)c3)c21`, for which the EC50 was above 200 µM and the IC50 was 0.724 µM.
Taken in the same sequence, the figures for `C/C(=N\O)C(CN(C)C)C(c1ccccc1)c1c(O)c2ccccc2oc1=O` (centres undefined) were above 32.4 µM and 21.9 µM.
As for `Cn1c2ccccc2c(=O)c2c(O)cc3c(c21)CC(C1(C)CO1)O3` (centres undefined), the EC50 is above 6.17 µM and the IC50 was 0.209 µM.
Taken in the same sequence, the figures for `COC(=O)c1ccc(NCc2cc(O)ccc2O)cc1` were above 200 µM and 11.7 µM.
Taken in the same sequence, the figures for `CCOc1ccc(/C=N\N2C(=O)c3ccccc3C2=O)cc1` were above 123 µM and above 123 µM.
Regarding `C=CCCCN(C(=O)c1ccccc1)c1ccc(C(=O)OC)o1`, the EC50 is above 200 µM and the half-maximal inhibitory concentration (IC50) came out at 50.1 µM.
As for `CCOC(=O)CCC1(C)OCC(COC)O1` (centres undefined), the EC50 is above 200 µM and the IC50 was above 200 µM.
On to `CCOC1CN=C(Nc2cccc3ccccc23)S1` (centres undefined), for which the EC50 was above 200 µM and the IC50 turned out to be 162 µM.
The matching figures for `O=C(Nc1ccc(C(F)(F)F)cc1[N+](=O)[O-])C(=O)Nn1c(=S)[nH]c2ccccc2c1=O`: above 79.4 µM and above 79.4 µM.
`CN(C)c1ccc(C=C(C(=O)c2ccccc2)C(=O)c2ccccc2)cc1`: the EC50 is above 10.7 µM and the half-maximal inhibitory concentration (IC50) is above 10.7 µM.
Regarding `CC(=O)OCC1OC(n2c(-c3ccccc3)c(N=Nc3ccccc3)c(C)c(C#N)c2=S)C(OC(C)=O)C(OC(C)=O)C1OC(C)=O` (centres undefined), the EC50 was above 200 µM and the concentration for half-maximal inhibition (IC50) is above 200 µM.
`CC(C)(CCCCC(C)(C)NCC1COc2ccccc2O1)NCC1COc2ccccc2O1` (centres undefined): the EC50 was above 200 µM and the IC50 was found to be 7.24 µM.
The matching figures for `CCOc1ccc(NC(=O)C(=O)CC(=O)c2c(C)n([O-])c3ccccc3[n+]2=O)cc1`: above 6.61 µM and above 6.61 µM.
For the molecule `CC1=NNC(=O)C1C1CC(c2c[nH]c3ccccc23)=NN(C(N)=O)C1=O` (centres undefined), the EC50 was above 200 µM and the IC50 was above 100 µM.
